According to patent US20080194574A1, “Pyrazine Derivatives As Effective Compounds Against Infectious Diseases” (AXXIMA PHARMACEUTICALS AG, priority 2003, published 2008):

Target: T1, viral kinase pUL-97 (Human cytomegalovirus, UniProt P16788)
T1 construct: The pUL-97 gene was cloned into a baculovirus vector; GST (glutathione S-transferase) (N); made in house; host or cells: Sf9 insect cells, baculovirus
Experiment: UL97 kinase assay on Immobilon plate
Type: biochemical
Settings: inhibition of UL 97 kinase activity; class by IC50 / % inhibition at 10 μM or 100 μM; read-out: Activity Class [A, B, C]
How it was run: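 Compound was titrated into a radiometric reaction of Sf9-expressed GST-UL97 kinase, incubated 1 h at 30 °C in Tris-HCl pH 7.5/MnCl2/DTT buffer before EDTA stop. MBP substrate and ATP (3 μM in the added assay buffer) were supplied with γ-[33P]ATP. Labelled product bound to Immobilon filter was washed and counted by scintillation.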

T1 sequence (P16788 whole entry): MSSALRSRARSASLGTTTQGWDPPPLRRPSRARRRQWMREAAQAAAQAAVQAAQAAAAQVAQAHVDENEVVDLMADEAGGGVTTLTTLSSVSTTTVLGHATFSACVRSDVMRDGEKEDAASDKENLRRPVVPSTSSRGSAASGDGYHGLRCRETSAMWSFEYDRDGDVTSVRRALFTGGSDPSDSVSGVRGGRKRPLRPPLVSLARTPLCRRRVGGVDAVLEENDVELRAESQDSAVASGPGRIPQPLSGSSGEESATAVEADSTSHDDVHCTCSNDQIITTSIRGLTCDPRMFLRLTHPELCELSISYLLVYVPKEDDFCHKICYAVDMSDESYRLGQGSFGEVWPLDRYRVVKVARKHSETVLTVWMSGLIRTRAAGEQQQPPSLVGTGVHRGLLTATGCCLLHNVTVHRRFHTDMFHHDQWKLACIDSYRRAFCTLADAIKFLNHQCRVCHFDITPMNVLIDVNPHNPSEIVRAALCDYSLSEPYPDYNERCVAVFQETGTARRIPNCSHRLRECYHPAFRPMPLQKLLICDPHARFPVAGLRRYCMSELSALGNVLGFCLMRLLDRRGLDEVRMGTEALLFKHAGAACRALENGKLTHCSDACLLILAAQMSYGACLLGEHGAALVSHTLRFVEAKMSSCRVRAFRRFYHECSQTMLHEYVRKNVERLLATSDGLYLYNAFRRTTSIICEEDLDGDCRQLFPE

Structure (SMILES)	IC50 [µM]
Fc1ccc(N2CCN(c3cncc(-c4csc5ccccc45)n3)CC2)cc1 [compound 235, 6′-Benzo[b]thiophen-3-yl-4-(4-fluoro-phenyl)-3,4,5,6-tetrahydro-2H-[1,2′]bipyrazinyl]	1 to 10
Cc1ccc(N2CCN(c3cncc(-c4ccc(F)c(Cl)c4)n3)CC2)cc1C [compound 316, 6′-(3-Chloro-4-fluoro-phenyl)-4-(3,4-dimethyl-phenyl)-3,4,5,6-tetrahydro-2H-[1,2′]bipyrazinyl]	10 to 100
CSc1ccc(-c2cncc(N3CCN(c4cnccn4)CC3)n2)cc1 [compound 314, 6-(4-Methylsulfanyl-phenyl)-2′,3′,5′,6′-tetrahydro-[2,1′;4′,2″]terpyrazine]	1 to 10
COc1ccc(N2CCN(c3cncc(-c4cccc(OC)c4)n3)CC2)cc1 [compound 294, 4-(4-Methoxy-phenyl)-6′-(3-methoxy-phenyl)-3,4,5,6-tetrahydro-2H-[1,2′]bipyrazinyl]	10 to 100
FC(F)(F)c1cccc(N2CCN(c3cncc(-c4ccccc4Oc4ccccc4)n3)CC2)c1 [compound 217, 6′-(2-Phenoxy-phenyl)-4-(3-trifluoromethyl-phenyl)-3,4,5,6-tetrahydro-2H-[1,2′]bipyrazinyl]	10 to 100
COc1ccc(OC)c(-c2cncc(N3CCN(c4ccc(OC)c(OC)c4)CC3)n2)c1 [compound 225, 4-(3,4-Dimethoxy-phenyl)-6′-(2,5-dimethoxy-phenyl)-3,4,5,6-tetrahydro-2H-[1,2′]bipyrazinyl]	10 to 100
OCc1ccccc1-c1cncc(N2CCN(c3ccc(F)cc3F)CC2)n1 [compound 202, {2-[4-(2,4-Difluoro-phenyl)-3,4,5,6-tetrahydro-2H-[1,2′]bipyrazinyl-6′-yl]-phenyl}-methanol]	10 to 100
CC(=O)c1cccc(-c2cncc(N3CCN(c4cccc(C)c4C)CC3)n2)c1 [compound 297, 1-{3-[4-(2,3-Dimethyl-phenyl)-3,4,5,6-tetrahydro-2H-[1,2′]bipyrazinyl-6′-yl]-phenyl}-ethanone]	10 to 100
CC(=O)c1ccc(N2CCN(c3cncc(-c4ccc(F)cc4)n3)CC2)cc1 [compound 276, 1-{4-[6′-(4-Fluoro-phenyl)-2,3,5,6-tetrahydro-[1,2′]bipyrazinyl-4-yl]-phenyl}-ethanone]	1 to 10
OCc1ccc(-c2cncc(N3CCN(c4cccc(C(F)(F)F)c4)CC3)n2)cc1 [compound 254, {4-[4-(3-Trifluoromethyl-phenyl)-3,4,5,6-tetrahydro-2H-[1,2′]bipyrazinyl-6′-yl]-phenyl}-methanol]	10 to 100
CSc1ccc(-c2cncc(N3CCN(c4ccc(C(F)(F)F)cc4)CC3)n2)cc1 [compound 311, 6′-(4-Methylsulfanyl-phenyl)-4-(4-trifluoromethyl-phenyl)-3,4,5,6-tetrahydro-2H-[1,2′]bipyrazinyl]	1 to 10
COc1cccc(N2CCN(c3cncc(-c4ccc5ccccc5c4)n3)CC2)c1 [compound 322, 4-(3-Methoxy-phenyl)-6′-naphthalen-2-yl-3,4,5,6-tetrahydro-2H-[1,2′]bipyrazinyl]	1 to 10
OCc1ccc(-c2cncc(N3CCN(c4ccc(F)cc4F)CC3)n2)cc1 [compound 200, {4-[4-(2,4-Difluoro-phenyl)-3,4,5,6-tetrahydro-2H-[1,2′]bipyrazinyl-6′-yl]-phenyl}-methanol]	10 to 100
Clc1ccc(N2CCN(c3cncc(-c4ccc5ccccc5c4)n3)CC2)cc1 [compound 348, 4-(4-Chloro-phenyl)-6′-naphthalen-2-yl-3,4,5,6-tetrahydro-2H-[1,2′]bipyrazinyl]	1 to 10
COc1ccccc1N1CCN(c2cncc(-c3ccc(F)c(Cl)c3)n2)CC1 [compound 242, 6′-(3-Chloro-4-fluoro-phenyl)-4-(2-methoxy-phenyl)-3,4,5,6-tetrahydro-2H-[1,2′]bipyrazinyl]	10 to 100
Cc1cc(C)cc(-c2cncc(N3CCN(c4cccc(C)c4)C(C)C3)n2)c1 (stereo not shown) [compound 339, 6′-(3,5-Dimethyl-phenyl)-3-methyl-4-m-tolyl-3,4,5,6-tetrahydro-2H-[1,2′]bipyrazinyl]	10 to 100

Same assay, conditions: inhibition of UL 97 kinase activity; class by IC50 / % inhibition at 10 or 100 μM; read-out: Activity Class [A, B, C]

Structure (SMILES)	IC50 [µM]
CC(=O)c1ccc(N2CCN(c3cncc(-c4cccc(C)c4C)n3)CC2)cc1 [compound 150]	10 to 100
Fc1ccc(N2CCN(c3cncc(-c4cccc5ccccc45)n3)CC2)c(F)c1 [compound 143, 4-(2,4-Dinfluoro-phenyl)-6′-naphthalen-1-yl-3,4,5,6-tetrahydro-2H-[1,2′]bipyrazinyl]	10 to 100
COc1cccc(-c2cncc(N3CCN(c4cccc(Cl)c4)CC3)n2)c1 [compound 98, 4-(3-Chloro-phenyl)-6′-(3-methoxy-phenyl)-3,4,5,6-tetrahydro-2H-[1,2′]bipyrazinyl]	1 to 10
Fc1ccccc1N1CCN(c2cncc(-c3ccsc3)n2)CC1 [compound 122, 4-(2-Fluoro-phenyl)-6′-thiophen-3-yl-3,4,5,6-tetrahydro-2H-[1,2′]bipyrazinyl]	1 to 10
Clc1cccc(-c2cncc(N3CCN(c4ccccn4)CC3)n2)c1 [compound 53, 6′-(3-Chloro-phenyl)-4-pyridin-2-yl-3,4,5,6-tetrahydro-2H-[1,2′]bipyrazinyl]	1 to 10
c1ccc(-c2cncc(N3CCN(c4ccncc4)CC3)n2)cc1 [compound 67, 6′-Phenyl-4-pyridin-4-yl-3,4,5,6-tetrahydro-2H-[1,2′]bipyrazinyl]	1 to 10
COc1ccccc1N1CCN(c2cncc(-c3ccc(F)cc3)n2)CC1 [compound 106, 6′-(4-Fluoro-phenyl)-4-(2-methoxy-phenyl)-3,4,5,6-tetrahydro-2H-[1,2′]bipyrazinyl]	1 to 10
Fc1ccccc1N1CCN(c2cncc(-c3ccoc3)n2)CC1 [compound 126, 4-(2-Fluoro-phenyl)-6′-furan-3-yl-3,4,5,6-tetrahydro-2H-[1,2′]bipyrazinyl]	1 to 10
OCc1ccc(-c2cncc(N3CCN(c4ccccc4F)CC3)n2)cc1 [compound 125, {4-[4-(2-Fluoro-phenyl)-3,4,5,6-tetrahydro-2H-[1,2′]bipyrazinyl-6′-yl]-phenyl}-methanol]	1 to 10
Fc1ccc(-c2cncc(N3CCN(c4cccc(C(F)(F)F)c4)CC3)n2)cc1Cl [compound 157, 6′-(3-Chloro-4-fluoro-phenyl)-4-(3-trifluoromethyl-phenyl)-3,4,5,6-tetrahydro-2H-[1,2′]bipyrazinyl]	10 to 100
OCc1ccc(-c2cncc(N3CCN(c4cccc(Cl)c4)CC3)n2)cc1 [compound 83, {4-[4-(3-Chloro-phenyl)-3,4,5,6-tetrahydro-2H-[1,2′]bipyrazinyl-6′-yl]-phenyl}-methanol]	1 to 10
CSc1ccc(-c2cncc(N3CCN(c4ccncc4)CC3)n2)cc1 [compound 66, 6′-(4-Methylsulfanyl-phenyl)-4-pyridin-4-yl-3,4,5,6-tetrahydro-2H-[1,2′]bipyrazinyl]	< 1
Fc1ccc(N2CCN(c3cncc(-c4ccc(F)c(Cl)c4)n3)CC2)c(F)c1 [compound 145, 6′-(3-Chloro-4-fluoro-phenyl)-4-(2,4-difluoro-phenyl)-3,4,5,6-tetrahydro-2H-[1,2′]bipyrazinyl]	10 to 100
COc1ccccc1N1CCN(c2cncc(-c3ccccc3C)n2)CC1 [compound 87, 4-(2-Methoxy-phenyl)-6′-o-tolyl-3,4,5,6-tetrahydro-2H-[1,2′]bipyrazinyl]	10 to 100
c1ccc2cc(-c3cncc(N4CCN(CCN5CCCC5)CC4)n3)ccc2c1 [compound 17, 6′-Naphthalen-2-yl-4-(2-pyrrolidin-1-yl-ethyl)-3,4,5,6-tetrahydro-2H-[1,2′]bipyrazinyl]	< 1
COc1ccc(N2CCN(c3cncc(-c4ccc(Oc5ccccc5)cc4)n3)CC2)cc1OC [compound 168, 4-(3,4-Dimethoxy-phenyl)-6′-(4-phenoxy-phenyl)-3,4,5-6-tetrahydro-2H-[1,2′]bipyrazinyl]	10 to 100
Clc1cccc(N2CCN(c3cncc(-c4ccccc4Oc4ccccc4)n3)CC2)c1 [compound 185, 4-(3-Chloro-phenyl)-6′-(2-phenoxy-phenyl)-3,4,5,6-tetrahydro-2H-[1,2′]bipyrazinyl]	10 to 100
Clc1ccc(-c2cncc(N3CCN(c4ccncc4)CC3)n2)cc1 [compound 47, 6′-(4-Chloro-phenyl)-4-pyridin-4-yl-3,4,5,6-tetrahydro-2H-[1,2′]bipyrazinyl]	1 to 10
CC(=O)c1ccc(-c2cncc(N3CCN(c4ccncc4)CC3)n2)s1 [compound 65, 1-[5-(4-Pyridin-4-yl-3,4,5,6-tetrahydro-2H-[1,2′]bipyrazinyl-6′yl)-thiophen-2-yl]-ethanone]	< 1
c1ccc(Oc2ccc(-c3cncc(N4CCN(c5ccccc5)CC4)n3)cc2)cc1 [compound 189, 6′-(4-Phenoxy-phenyl)-4-phenyl-3,4,5,6-tetrahydro-2H-[1,2′]bipyrazinyl]	10 to 100
COc1ccccc1N1CCN(c2cncc(-c3ccc(N(C)C)cc3)n2)CC1 [compound 186, {4-[4-(2-Methoxy-phenyl)-3,4,5,6-tetrahydro-2H-[1,2′]bipyrazinyl-6′-yl]-phenyl}-dimethyl-amine]	10 to 100
COc1ccccc1N1CCN(c2cncc(-c3ccc(C(C)(C)C)cc3)n2)CC1 [compound 88, 6′-(4-tert-Butyl-phenyl)-4-(2-methoxy-phenyl)-3,4,5,6-tetrahydro-2H-[1,2′]bipyrazinyl]	10 to 100
CC(=O)c1cccc(-c2cncc(N3CCN(c4cccc(C(F)(F)F)c4)CC3)n2)c1 [compound 162, 1-{3-[4-(3-Trifluoromethyl-phenyl)-3,4,5,6-tetrahydro-2H-[1,2′]bipyrazinyl-6′-yl]-phenyl}-ethanone]	10 to 100
COc1ccc(Cl)cc1-c1cncc(N2CCN(c3ccccc3OC)CC2)n1 [compound 91, 6′-(5-Chloro-2-methoxy-phenyl)-4-(2-methoxy-phenyl)-3,4,5,6-tetrahydro-2H-[1,2′]bipyrazinyl]	10 to 100
